According to PubChem BioAssay AID2252 (Southern Research Specialized Biocontainment Screening …, 2010):

Test system: THP-1 viability, CellTiter-Glo luminescence, 72 h
Assay: PubChem AID 2252

Structure (SMILES) | EC50
C#CCOCCOCCOCCNc1nc(N2CCN(C(=O)CCCCCCCCCCNC(=O)[C@H](CCCCN)n3cc(C)nn3)CC2)nc(N2CCN(C(=O)CCCCCCCCCCNC(=O)[C@@H]([C@H](C)CC)n3cc(CCCCCN)nn3)CC2)n1 | 12.7 µM
Cc1ccc(C(=O)N2C(=S)C(c3ccc(F)cc3)=NC23CCN(C)CC3)cc1 | 16.7 µM
Cc1ccc(C(=O)NCC(=O)NCCc2ccc(S(N)(=O)=O)cc2)s1 | < 0.1 µM
COc1cccc(-c2nnc(NC(=O)c3ccc(Cl)s3)o2)c1 | 15 µM
O=C(N/N=C/c1cc(O)ccc1Br)c1cccnc1 | 2.86 µM
O=C(Nc1cccc(C2=NCCN2)c1)Nc1cccc(C2=NCCN2)c1 | 13.2 µM
CNCc1c(OCc2ccccc2F)ccc2ccccc12 | 15.2 µM
COC(=O)c1ccc(Cn2c(O)c(N=NC(N)=S)c3ccccc32)o1 | 12.7 µM
O=C(Nc1nnc(-c2cccs2)o1)c1cccc(F)c1 | 16.9 µM
CCc1ccc(N2CC(C(=O)N/N=C/c3cc([N+](=O)[O-])ccc3O)CC2=O)cc1 (configuration not stated) | 11.3 µM
Cc1ccc(-c2cc(-c3ccc(C)cc3)[n+](-c3ccccc3)c(-c3ccc(C)cc3)c2)cc1 | 0.49 µM
CCC(=O)c1ccc(OCC(O)CNCCc2ccc(Cl)cc2)cc1 (configuration not stated) | 28.9 µM
CCCN1CCC(NCc2cn(C)nc2-c2ccc(Oc3ccccc3)cc2)CC1 | 9.72 µM
COc1ccc(/C=N/Nc2cc(C)nc3ccc(Br)cc23)cc1 | 4.17 µM
Oc1c(CN2CCN(c3ccccn3)CC2)cc(Cl)c2cccnc12 | 1.64 µM
CC1(C)N=C(N)NC(Nc2ccc(Br)cc2)=N1 | 7.06 µM
COc1ccc(CNCCc2c[nH]c3ccccc23)c(OC)c1C | 8.57 µM
CCCCC(CC)CN=C(N)NC(N)=NCCCCCCN=C(N)NC(N)=NCC(CC)CCCC (configuration not stated) | 0.83 µM
COc1cccc(/C=N/NC(=O)CNC(=O)COc2cccc(C)c2)c1O | 9.52 µM
CC(C(=O)NC1C=CS(=O)(=O)C1)N1C(=O)/C(=C/c2cccc(Cl)c2)SC1=S (configuration not stated) | 24.5 µM
CNCC[C@H](Oc1cccc2ccccc12)c1cccs1 | 18.3 µM
CN(C)CC/C=C1\c2ccc(F)cc2Sc2cc(F)c(Cl)cc21 | 11.3 µM
O=C(Nc1ccc(Cc2ccncc2)cc1)c1ccc([N+](=O)[O-])o1 | 4.02 µM
CC1CC(C)CN(CCOc2ccc(Cl)cc2Cl)C1 (configuration not stated) | 29.4 µM
NC1=NC[C@H](c2ccccc2)N1CCCCC1CCCCC1 | 6.36 µM
CCN(CCC(=O)Nc1ccc(Br)c(C)c1)Cc1ccccc1 | 13.8 µM

Structure (SMILES) | EC50
OCCN1CCN(CCCN2c3ccccc3Sc3ccc(C(F)(F)F)cc32)CC1 | 12.7 µM
COc1cc([N+](=O)[O-])cc(/C=N/NC(=O)C(O)(c2ccccc2)c2ccccc2)c1O | 25.4 µM
CCCC(=O)NC(c1ccco1)c1cc([N+](=O)[O-])c2cccnc2c1O (configuration not stated) | 22.9 µM
COC(=O)C1C(O)C(C)C(O)C(C)(O)/C=C\C=C(/C)C(=O)Nc2c(C)c(OC(C)=O)c3c(c2O)C(=O)C(C)=C2OCOC(=C23)/C(C)=C/C(C)(O)C(O)C(C)C1O (configuration not stated) | < 0.1 µM
O[C@@H](c1cc(C(F)(F)F)nc2c(C(F)(F)F)cccc12)[C@H]1CCCCN1 | 3.98 µM
CCc1ccc2c(c1)Sc1ccccc1CC2N1CCN(C)CC1 (configuration not stated) | 11.8 µM
COc1nccnc1NS(=O)(=O)c1ccc(N=Cc2c(C)[nH]n(-c3ccc(C)c(C)c3)c2=O)cc1 | 14.4 µM
OC(c1cc(C(F)(F)F)nc2c(C(F)(F)F)cccc12)C1CCCCN1 (configuration not stated) | 7.61 µM
COc1ccc(Nc2c3c(nc4ccccc24)CCC3)cc1 | 3.42 µM
Cc1[nH]c2ccc(OC(F)(F)F)cc2c1CCNCc1ccc(Cl)cc1 | 4.99 µM
CC(C)NC(=O)Nc1ccc(Br)cc1Cl | < 0.1 µM
CCOC(=O)c1c(-c2ccccc2)oc2ccc(OCC(O)CNCCN(C)C)cc12 (configuration not stated) | 5.89 µM
O=C(CSc1nc2ccccc2s1)N/N=C/c1cc([N+](=O)[O-])ccc1O | 27.5 µM
Oc1ccc(CN2CCN(c3ccccc3)CC2)c2cccnc12 | 5.88 µM
O=[N+]([O-])c1cc(O)c2ncccc2c1 | 5.78 µM
Nc1ncn([C@@H]2O[C@H](CO)[C@@H](O)[C@H]2O)c(=O)n1 | 19.7 µM
CCCCOc1ccc(CSC(=N)N)cc1Cl | 10.9 µM
COc1ccc(NS(=O)(=O)c2cc(NC(=O)c3ccc(C)s3)ccc2N2CCOCC2)cc1 | 21.6 µM
Cc1ccccc1-n1ncc2c([N+](=O)[O-])cc([N+](=O)[O-])cc21 | 26.6 µM
CC[C@H]1OC(=O)C[C@@H](O)[C@H](C)[C@@H](O[C@@H]2O[C@H](C)C[C@H](N(C)C)[C@H]2O)[C@@H](CC=O)C[C@@H](C)C(=O)C=C[C@]2(C)O[C@H]2[C@@H]1C | 12.2 µM
CC1CCN(c2nc3ccc(C(=O)NCCCN4CCCCC4)cc3s2)CC1 | 30.7 µM
COc1cccc2[nH]c3c(N4CCN(Cc5ccc6c(c5)OCO6)CC4)ncnc3c12 | 42.2 µM
C#CCOCCOCCOCCNc1nc(N2CCN(C(=O)CCCCCCCCCCNC(=O)Cn3cc(CCCCCN)nn3)CC2)nc(N2CCN(C(=O)CCCCCCCCCCNC(=O)[C@@H]([C@H](C)O)n3cc(C)nn3)CC2)n1 | < 0.1 µM
OC1CCCN(Cc2ccc3ccc4cccc5ccc2c3c45)C1 (configuration not stated) | 15.2 µM
Oc1ccccc1N=Cc1c(O)ccc2oc3c(c12)CCCC3 | 45.8 µM
CC(/C=N/Nc1nc2ccccc2[nH]1)=C\c1ccccc1 | 33.4 µM

Structure (SMILES) | EC50
OCCCNc1c2ccccc2nc2ccccc12 | 2.13 µM
Cc1ccc(NC(=O)c2ccc([N+](=O)[O-])o2)c(C)c1 | 12.1 µM
CC(C)N1CSC(=S)N(Cc2ccccc2)C1 | 12.8 µM
COc1ccc2nc(N(CCN(C)C)C(=O)/C=C/c3cccs3)sc2c1 | 16.1 µM
S=C(Nc1ccc(Cl)c(Cl)c1)NC1CCN(Cc2ccccc2)CC1 | 10.7 µM
Cc1cc(C(C)(C)CC(C)(C)C)ccc1OCCOCC[N+](C)(C)Cc1ccccc1 | 1.18 µM
Cc1c(CCN)ccc2c1[nH]c1ccccc12 | 22.3 µM
C#CCOCCOCCOCCNc1nc(N2CCN(C(=O)CCCCCCCCCCNC(=O)[C@H]([C@@H](C)CC)n3cc(CCCCCN)nn3)CC2)nc(N2CCN(C(=O)CCCCCCCCCCNC(=O)[C@H]([C@@H](C)CC)n3cc(CCCCN=C(N)N)nn3)CC2)n1 | 5.17 µM
CCCCOc1ccc(NC2=NC3(CCCCC3)N=C(N)N2)cc1 | 7.18 µM
Cc1ccc(OCC(O)Cn2c(=N)n(CCN3CCCCC3)c3ccccc32)cc1 (configuration not stated) | 5.35 µM
CCN1CCN(CCNC(=O)c2ccc(/C=C3/Sc4ccccc4N(Cc4cccc(C)c4)C3=O)cc2)CC1 | 8.21 µM
Cc1cccc(Nc2c3c(nc4ccccc24)CCC3)c1 | 6.27 µM
O=C(CC(=O)c1c(F)cccc1Cl)c1ccccc1O | 27.4 µM
CC(C)(C)c1ccc(NC(=O)NCc2ccco2)cc1 | 13.3 µM
CN(C)CC/C=C1\c2ccccc2Sc2ccc(Cl)cc21 | 17 µM
CN(C)CCCNc1c2ccccc2nc2ccccc12 | 3.46 µM
CCCCCC[N+](C)(C)CC/C=C1/c2ccccc2Sc2ccc(Cl)cc21 | 5.39 µM
O=C(O)c1ccc(NC2=C(Cl)C(=O)c3ccccc3C2=O)cc1 | 11.5 µM
CN1CCN(C2=Cc3ccccc3Sc3cc(F)ccc32)CC1 | 8.09 µM
Cn1cnc2cc(NC(=O)c3cccs3)ccc21 | < 0.1 µM
Cc1nn(Cc2ccccc2Cl)c2sc(C(=O)Nc3ccccc3N3CCOCC3)cc12 | 20.4 µM
Nc1cc2c3c(cccc3c1)C(=O)N(CCN1CCCC1)C2=O | 11.3 µM
O=C(NC(=S)NNC(=O)c1ccccc1O)c1ccco1 | 17.2 µM
CCN(CC)c1ccc(/C=N/NC(=O)c2ccc3nc[nH]c3c2)c(O)c1 | 0.9 µM
CCCCCOc1ccc(CSC2=NCCN2)cc1[N+](=O)[O-] | 20 µM
